Results from the NIST ThermoML archive (doi:10.1021/je100237h).
± gives the expanded uncertainty stated by the source.

Conditions: Liquid; for viscosity: 101.33 kPa, Concentric cylinders viscometry; for mass density: Vibrating tube method

COC(=O)CCCCC(=O)OC [dimethyl 1,6-hexanedioate]
Conditions | viscosity [mPa·s]
283.15 K | 4.39 ± 0.09
288.15 K | 3.82 ± 0.08
293.15 K | 3.36 ± 0.07
298.15 K | 2.98 ± 0.06
303.15 K | 2.67 ± 0.06
308.15 K | 2.4 ± 0.05
313.15 K | 2.18 ± 0.05
318.15 K | 1.99 ± 0.04
323.15 K | 1.82 ± 0.04
328.15 K | 1.68 ± 0.04
333.15 K | 1.55 ± 0.03
338.15 K | 1.44 ± 0.03
343.15 K | 1.34 ± 0.03
348.15 K | 1.25 ± 0.03
353.15 K | 1.17 ± 0.03
358.15 K | 1.1 ± 0.02
363.15 K | 1.03 ± 0.02
368.15 K | 0.97 ± 0.02
373.15 K | 0.92 ± 0.02

Conditions | mass density [kg/m3]
293.15 K, 100 kPa | 1061.5 ± 2.1
293.15 K, 10000 kPa | 1067.7 ± 2.2
293.15 K, 20000 kPa | 1073.6 ± 2.2
293.15 K, 30000 kPa | 1079.2 ± 2.2
293.15 K, 40000 kPa | 1084.5 ± 2.2
293.15 K, 50000 kPa | 1089.6 ± 2.2
293.15 K, 60000 kPa | 1094.7 ± 2.2
293.15 K, 70000 kPa | 1099.5 ± 2.3
293.15 K, 80000 kPa | 1104.2 ± 2.3
293.15 K, 90000 kPa | 1108.5 ± 2.3
293.15 K, 100000 kPa | 1112.8 ± 2.3
303.15 K, 100 kPa | 1051.8 ± 2.1
303.15 K, 10000 kPa | 1058 ± 2.1
303.15 K, 20000 kPa | 1064.4 ± 2.2
303.15 K, 30000 kPa | 1070.5 ± 2.2
303.15 K, 40000 kPa | 1076 ± 2.2
303.15 K, 50000 kPa | 1081.5 ± 2.2
303.15 K, 60000 kPa | 1086.7 ± 2.2
303.15 K, 70000 kPa | 1091.5 ± 2.2
303.15 K, 80000 kPa | 1096.1 ± 2.3
303.15 K, 90000 kPa | 1100.6 ± 2.3
303.15 K, 100000 kPa | 1104.7 ± 2.3
303.15 K, 110000 kPa | 1108.9 ± 2.4
303.15 K, 120000 kPa | 1113.1 ± 2.4
303.15 K, 130000 kPa | 1117 ± 2.4
303.15 K, 140000 kPa | 1120.9 ± 2.5
313.15 K, 100 kPa | 1042.1 ± 2.1
313.15 K, 10000 kPa | 1048.9 ± 2.1
313.15 K, 20000 kPa | 1055.6 ± 2.1
313.15 K, 30000 kPa | 1061.8 ± 2.1
313.15 K, 40000 kPa | 1067.5 ± 2.2
313.15 K, 50000 kPa | 1073.2 ± 2.2
313.15 K, 60000 kPa | 1078.6 ± 2.2
313.15 K, 70000 kPa | 1083.7 ± 2.2
313.15 K, 80000 kPa | 1088.7 ± 2.2
313.15 K, 90000 kPa | 1093.2 ± 2.3
313.15 K, 100000 kPa | 1097.2 ± 2.3
313.15 K, 110000 kPa | 1101.5 ± 2.3
313.15 K, 120000 kPa | 1105.6 ± 2.4
313.15 K, 130000 kPa | 1109.8 ± 2.4
313.15 K, 140000 kPa | 1113.8 ± 2.4
323.15 K, 100 kPa | 1031.6 ± 2.1
323.15 K, 10000 kPa | 1038.9 ± 2.1
323.15 K, 20000 kPa | 1045.7 ± 2.1
323.15 K, 30000 kPa | 1052.1 ± 2.1
323.15 K, 40000 kPa | 1058.3 ± 2.1
323.15 K, 50000 kPa | 1063.9 ± 2.2
323.15 K, 60000 kPa | 1069.1 ± 2.2
323.15 K, 70000 kPa | 1074.4 ± 2.2
323.15 K, 80000 kPa | 1079.3 ± 2.2
323.15 K, 90000 kPa | 1084.2 ± 2.2
323.15 K, 100000 kPa | 1088.9 ± 2.3
323.15 K, 110000 kPa | 1093.3 ± 2.3
323.15 K, 120000 kPa | 1097.9 ± 2.3
323.15 K, 130000 kPa | 1102.2 ± 2.4
323.15 K, 140000 kPa | 1106.2 ± 2.4
333.15 K, 100 kPa | 1022.6 ± 2.1
333.15 K, 10000 kPa | 1029.6 ± 2.1
333.15 K, 20000 kPa | 1036.8 ± 2.1
333.15 K, 30000 kPa | 1043.6 ± 2.1
333.15 K, 40000 kPa | 1049.9 ± 2.1
333.15 K, 50000 kPa | 1056 ± 2.1
333.15 K, 60000 kPa | 1061.5 ± 2.2
333.15 K, 70000 kPa | 1066.9 ± 2.2
333.15 K, 80000 kPa | 1072 ± 2.2
333.15 K, 90000 kPa | 1076.9 ± 2.2
333.15 K, 100000 kPa | 1082 ± 2.3
333.15 K, 110000 kPa | 1086.8 ± 2.3
333.15 K, 120000 kPa | 1091.1 ± 2.3
333.15 K, 130000 kPa | 1095.5 ± 2.4
333.15 K, 140000 kPa | 1099.8 ± 2.4
343.15 K, 100 kPa | 1012.3 ± 2
343.15 K, 10000 kPa | 1020.4 ± 2.1
343.15 K, 20000 kPa | 1028.1 ± 2.1
343.15 K, 30000 kPa | 1034.8 ± 2.1
343.15 K, 40000 kPa | 1041.3 ± 2.1
343.15 K, 50000 kPa | 1047.6 ± 2.1
343.15 K, 60000 kPa | 1053.5 ± 2.1
343.15 K, 70000 kPa | 1058.6 ± 2.2
343.15 K, 80000 kPa | 1064.2 ± 2.2
343.15 K, 90000 kPa | 1069.3 ± 2.2
343.15 K, 100000 kPa | 1074.1 ± 2.2
343.15 K, 110000 kPa | 1079 ± 2.3
343.15 K, 120000 kPa | 1083.9 ± 2.3
343.15 K, 130000 kPa | 1088.3 ± 2.3
343.15 K, 140000 kPa | 1092.4 ± 2.4
353.15 K, 100 kPa | 1002.2 ± 2
353.15 K, 10000 kPa | 1010.8 ± 2
353.15 K, 20000 kPa | 1018.4 ± 2.1
353.15 K, 30000 kPa | 1025.6 ± 2.1
353.15 K, 40000 kPa | 1032.8 ± 2.1
353.15 K, 50000 kPa | 1039 ± 2.1
353.15 K, 60000 kPa | 1045.4 ± 2.1
353.15 K, 70000 kPa | 1051.2 ± 2.1
353.15 K, 80000 kPa | 1056.7 ± 2.2
353.15 K, 90000 kPa | 1061.9 ± 2.2
353.15 K, 100000 kPa | 1067.3 ± 2.2
353.15 K, 110000 kPa | 1072.2 ± 2.2
353.15 K, 120000 kPa | 1076.6 ± 2.3
353.15 K, 130000 kPa | 1081.3 ± 2.3
353.15 K, 140000 kPa | 1085.6 ± 2.3
363.15 K, 100 kPa | 992.2 ± 2
363.15 K, 10000 kPa | 1000.6 ± 2
363.15 K, 20000 kPa | 1008.9 ± 2
363.15 K, 30000 kPa | 1016.6 ± 2
363.15 K, 40000 kPa | 1023.7 ± 2.1
363.15 K, 50000 kPa | 1030.4 ± 2.1
363.15 K, 60000 kPa | 1036.8 ± 2.1
363.15 K, 70000 kPa | 1042.9 ± 2.1
363.15 K, 80000 kPa | 1048.5 ± 2.1
363.15 K, 90000 kPa | 1053.9 ± 2.2
363.15 K, 100000 kPa | 1059.2 ± 2.2
363.15 K, 110000 kPa | 1064.3 ± 2.2
363.15 K, 120000 kPa | 1069.1 ± 2.3
363.15 K, 130000 kPa | 1074.1 ± 2.3
363.15 K, 140000 kPa | 1078.5 ± 2.3
373.15 K, 100 kPa | 981.9 ± 2
373.15 K, 10000 kPa | 991 ± 2
373.15 K, 20000 kPa | 999.5 ± 2
373.15 K, 30000 kPa | 1007.7 ± 2
373.15 K, 40000 kPa | 1014.8 ± 2
373.15 K, 50000 kPa | 1021.8 ± 2.1
373.15 K, 60000 kPa | 1029 ± 2.1
373.15 K, 70000 kPa | 1035 ± 2.1
373.15 K, 80000 kPa | 1040.9 ± 2.1
373.15 K, 90000 kPa | 1046.4 ± 2.1
373.15 K, 100000 kPa | 1051 ± 2.2
373.15 K, 110000 kPa | 1056.3 ± 2.2
373.15 K, 120000 kPa | 1061.6 ± 2.2
373.15 K, 130000 kPa | 1066 ± 2.3
373.15 K, 140000 kPa | 1071.2 ± 2.3
383.15 K, 100 kPa | 972.2 ± 2
383.15 K, 10000 kPa | 981.1 ± 2
383.15 K, 20000 kPa | 990.4 ± 2
383.15 K, 30000 kPa | 998.7 ± 2
383.15 K, 40000 kPa | 1006.3 ± 2
383.15 K, 50000 kPa | 1013.9 ± 2
383.15 K, 60000 kPa | 1020.5 ± 2.1
383.15 K, 70000 kPa | 1027 ± 2.1
383.15 K, 80000 kPa | 1033.2 ± 2.1
383.15 K, 90000 kPa | 1039 ± 2.1
383.15 K, 100000 kPa | 1044.7 ± 2.2
383.15 K, 110000 kPa | 1050.1 ± 2.2
383.15 K, 120000 kPa | 1055.2 ± 2.2
383.15 K, 130000 kPa | 1059.9 ± 2.2
383.15 K, 140000 kPa | 1065.1 ± 2.3
393.15 K, 100 kPa | 961.7 ± 1.9
393.15 K, 10000 kPa | 971.7 ± 2
393.15 K, 20000 kPa | 981.5 ± 2
393.15 K, 30000 kPa | 990.1 ± 2
393.15 K, 40000 kPa | 998.2 ± 2
393.15 K, 50000 kPa | 1005.9 ± 2
393.15 K, 60000 kPa | 1013 ± 2
393.15 K, 70000 kPa | 1019.7 ± 2.1
393.15 K, 80000 kPa | 1026 ± 2.1
393.15 K, 90000 kPa | 1032.1 ± 2.1
393.15 K, 100000 kPa | 1037.7 ± 2.1
393.15 K, 110000 kPa | 1043.1 ± 2.2
393.15 K, 120000 kPa | 1048.7 ± 2.2
393.15 K, 130000 kPa | 1053.8 ± 2.2
393.15 K, 140000 kPa | 1058.5 ± 2.3
403.15 K, 100 kPa | 951.5 ± 1.9
403.15 K, 10000 kPa | 961.4 ± 1.9
403.15 K, 20000 kPa | 971.6 ± 2
403.15 K, 30000 kPa | 980.8 ± 2
403.15 K, 40000 kPa | 989.3 ± 2
403.15 K, 50000 kPa | 997.3 ± 2
403.15 K, 60000 kPa | 1004.5 ± 2
403.15 K, 70000 kPa | 1011.5 ± 2.1
403.15 K, 80000 kPa | 1018.2 ± 2.1
403.15 K, 90000 kPa | 1024.5 ± 2.1
403.15 K, 100000 kPa | 1030.2 ± 2.1
403.15 K, 110000 kPa | 1035.9 ± 2.2
403.15 K, 120000 kPa | 1041.3 ± 2.2
403.15 K, 130000 kPa | 1046.6 ± 2.2
403.15 K, 140000 kPa | 1051.6 ± 2.3
